Source: patent US20220218838A1, “ADC FOR A TREATMENT CONCOMITANT WITH OR SUBSEQUENT TO DOCETAXEL” (PIERRE FABRE MEDICAMENT, priority 2019, published 2022)

What was measured:
[1] = tested on: MCF-7 tumour; assay: In-vivo activity in a breast cancer model: nude mice grafted with MCF-7 cells, after onset of docetaxel resistance; conditions: docetaxel 9 mg/kg intravenously, 5 injections, mice bearing MCF-7 tumours
Procedure: Determination of in-vivo activity: In-vivo activity is tested in a breast cancer model: 7-week old nude female mice (Charles River Laboratories, n=15) were subcutaneously grafted with 5×10^6 MCF-7 cells 1 day after subcutaneous implantation of 0.72 mg of granules releasing 17β-estradiol (Innovative Research of America) for 60 days.
The mice are randomised, and treatment is initiated when the tumours reach a size of approximately 150 mm^3. The tumour volume (length×width×height×0.52) is measured at least twice a week and the therapeutic response is defined using solid tumour response criteria (RECIST).
Mice bearing MCF-7 tumours are injected intravenously with docetaxel, 9 mg/kg twice a week for a total of 5 injections.
The percentage of the regression values is calculated using the following formula:
where T=the tumour volume in the treated group, ΔT=the tumour volume in the treated group on the day of the study minus the tumour volume in the treated group on the initial day of administration, and Tinitial=the tumour volume in the treated group on the initial day of the administration The disease is considered to be progressing when the tumour size increases by >20%. Partial regression (PR) is defined as a reduction in tumour size >30%. […]

[2] = molecular target: IGF-IR (Homo sapiens, UniProt P08069); conditions: read-out: Kd of binding to IGF-IR; cited from earlier work
IGF-IR, sequence (P08069 31-736 limits assumed): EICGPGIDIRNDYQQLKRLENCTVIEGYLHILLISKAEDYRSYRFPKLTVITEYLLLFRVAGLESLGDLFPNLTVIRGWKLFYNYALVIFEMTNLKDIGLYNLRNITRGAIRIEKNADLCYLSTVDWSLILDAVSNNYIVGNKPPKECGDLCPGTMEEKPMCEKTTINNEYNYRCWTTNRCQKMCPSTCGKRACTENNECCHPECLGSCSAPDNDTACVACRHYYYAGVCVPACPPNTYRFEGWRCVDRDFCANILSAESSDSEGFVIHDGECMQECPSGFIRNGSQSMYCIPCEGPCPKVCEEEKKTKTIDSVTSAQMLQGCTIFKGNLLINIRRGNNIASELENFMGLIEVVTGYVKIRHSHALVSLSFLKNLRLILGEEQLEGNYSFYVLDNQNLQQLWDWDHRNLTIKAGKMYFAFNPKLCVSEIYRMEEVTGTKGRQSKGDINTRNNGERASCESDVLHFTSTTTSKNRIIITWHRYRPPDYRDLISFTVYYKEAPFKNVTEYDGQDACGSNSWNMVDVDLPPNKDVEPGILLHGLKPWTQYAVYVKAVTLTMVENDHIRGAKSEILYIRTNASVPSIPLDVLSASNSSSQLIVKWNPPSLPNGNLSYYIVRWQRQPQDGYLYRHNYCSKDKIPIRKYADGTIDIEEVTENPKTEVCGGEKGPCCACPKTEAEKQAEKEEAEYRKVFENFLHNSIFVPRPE
IGF-IR, sequence (P08069 741-1367 partner limits assumed): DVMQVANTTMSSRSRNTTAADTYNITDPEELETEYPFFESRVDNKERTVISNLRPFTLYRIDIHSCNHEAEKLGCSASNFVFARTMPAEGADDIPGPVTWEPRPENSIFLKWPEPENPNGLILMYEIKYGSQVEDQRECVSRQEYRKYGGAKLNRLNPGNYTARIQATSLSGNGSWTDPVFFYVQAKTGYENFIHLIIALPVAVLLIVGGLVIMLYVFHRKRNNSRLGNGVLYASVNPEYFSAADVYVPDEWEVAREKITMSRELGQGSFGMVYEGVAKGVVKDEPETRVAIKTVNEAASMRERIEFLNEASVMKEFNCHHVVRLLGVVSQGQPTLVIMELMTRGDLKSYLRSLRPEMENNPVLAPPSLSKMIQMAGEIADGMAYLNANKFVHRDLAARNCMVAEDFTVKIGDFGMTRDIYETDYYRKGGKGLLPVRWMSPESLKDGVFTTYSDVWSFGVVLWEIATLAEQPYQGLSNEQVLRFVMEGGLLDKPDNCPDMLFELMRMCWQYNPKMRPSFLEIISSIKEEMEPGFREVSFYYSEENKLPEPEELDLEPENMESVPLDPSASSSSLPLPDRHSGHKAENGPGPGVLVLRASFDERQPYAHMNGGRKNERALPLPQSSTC

Compound	time after which the tumours became resistant to docetaxel and relapsed [1] [days]	Kd [2] [nM]
CC(=O)O[C@@]12CO[C@@H]1C[C@H](O)[C@@]1(C)C(=O)[C@H](O)C3=C(C)[C@@H](OC(=O)[C@H](O)[C@@H](NC(=O)OC(C)(C)C)c4ccccc4)C[C@@](O)([C@@H](OC(=O)c4ccccc4)[C@H]21)C3(C)C [docetaxel]	70	
IGF2: natural ligand bound by IGF-IR		~1
